Nine compounds from patent US20050228020A1, “Beta secretase inhibitors” (priority 2000, published 2005) can be followed below.

By IC50 is commonly meant the concentration needed to halve the response being measured.

The structures appear in SMILES notation. Counter-ions that a name gives are not always drawn.

The assay has as its target T1, recombinant human β secretase (Homo sapiens, UniProt P56817).
T1 construct: made in house; host or cells: COS7 cells transfected with pBACE2; membrane fraction solubilised with octyl-β-glucoside, purified with anti-Flag antibody
Nature of the assay: Measurement of inhibitory activity on β secretase (fluorogenic peptide substrate cleavage). Format: biochemical. The text has this: The PCR product was subjected to agarose gel electrophoresis, and about a 700-b DNA fragment was recovered. The fragment was cloned with a Zero Blunt TOPO PCR Cloning Kit (Invitrogen). The resultant plasmid was digested with restriction enzymes APaI (Takara Shuzo) and KpnI (Takara Shuzo) and then subjected to agarose gel electrophoresis to recover about a 250-b DNA fragment. […] These DNA fragments were mixed with an animal cell expression plasmid pcDNA3.1 (−) (Funakoshi) digested with API and KpnI, then ligated by use of Ligation High (Toyobo), and used to transform E. coli JM109 competent cells (Takara Shuzo) to give plasmid pBACE1. […] The PCR product was subjected to agarose gel electrophoresis, and about a 170-b DNA fragment was recovered. The fragment was cloned with a Zero Blunt TOPO PCR Cloning Kit (Invitrogen). The resultant plasmid was digested with restriction enzymes APaI (Takara Shuzo) and BbeI (Takara Shuzo) and then subjected to agarose gel electrophoresis, to recover about a 120-b DNA fragment. pBACE1 was digested with the same enzymes and subjected to agarose gel electrophoresis to recover about a 1.1-kb DNA fragment. Further, pBACE1 was digested with APaI and subjected to agarose gel electrophoresis to recover about a 5.7-kb DNA fragment. These 3 fragments were ligated by use of Ligation High (Toyobo), and used to transform E. coli JM109 competent cells (Takara Shuzo) to give plasmid pBACE2.
15 μg of Human β secretase expression plasmid pBACE2 and 45 μl of Fugene 6 (Roche Diagnostics) were allowed to stand in 1.5 ml D-MEM medium for 15 minutes at room temperature, and this mixture was added to COS7 cells previously grown in D-MEM medium (Nikken Seibutsu Igaku Kenkyusho) containing 10% fetal bovine serum (LifeTech Oriental) in a Tissue culture flask 150 ml (Becton, Dickinson & Co). […] The disrupted solution was centrifuged (500 g, 10 minutes), the supernatant was ultracentrifuged (100,000 g, 45 minutes), and the precipitates were lyzed (4° C., 2.5 hours) with 0.5 ml lyzing buffer (0.01 M Tris-HCl (pH 8), 0.05 M octyl-β-glucoside, 1 mM EDTA, 0.5 mM PMSF) and then ultracentrifuged (100,000 g, 45 minutes). The supernatant was purified with 100 μl anti-Flag antibody (Sigma).

[1] abbreviates: substrate Nma-Ser-Glu-Val-Asn-Leu-Asp-Ala-Glu-Lys(Dnp)-Arg-Arg-NH2, 0.05 M acetate buffer pH 4.5, 37° C. for 22 hours, fluorescence 325/460.

T1 sequence (P56817 with tags, fused parts or gaps): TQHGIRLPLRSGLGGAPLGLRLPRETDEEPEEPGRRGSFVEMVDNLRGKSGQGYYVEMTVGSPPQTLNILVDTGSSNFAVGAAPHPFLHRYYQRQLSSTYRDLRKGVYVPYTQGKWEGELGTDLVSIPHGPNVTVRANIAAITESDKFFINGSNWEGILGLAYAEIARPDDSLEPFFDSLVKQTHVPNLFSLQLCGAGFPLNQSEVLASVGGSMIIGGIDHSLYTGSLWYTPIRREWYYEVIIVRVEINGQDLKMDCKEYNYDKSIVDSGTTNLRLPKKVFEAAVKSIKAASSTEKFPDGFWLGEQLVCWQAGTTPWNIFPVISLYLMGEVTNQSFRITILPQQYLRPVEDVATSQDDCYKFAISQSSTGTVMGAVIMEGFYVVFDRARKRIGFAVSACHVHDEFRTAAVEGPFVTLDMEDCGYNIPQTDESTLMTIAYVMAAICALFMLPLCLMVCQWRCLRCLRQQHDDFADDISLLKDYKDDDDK

With `NCCC1CCc2cc(OCc3ccc(-c4ccccc4)cc3)ccc2C1` (stereo not drawn) [I], under setting [1], the IC50 came to 1050 nM.

Take `c1ccc(-c2ccc(COc3ccc4c(c3)CCC(CCn3ccnc3)C4)cc2)cc1` (stereo not drawn) [G]: the IC50 under setting [1] was determined as 856 nM.

In the case of `CCN(C)CCC1CCc2cc(OCc3ccc(-c4ccccc4)cc3)ccc2C1` (stereo not drawn) [D], under setting [1], the IC50 came out at 945 nM.

On to `Cc1ccc(-c2ccc(COc3ccc4c(c3)CC[C@@H](CCN(C)C)C4)cc2)cc1` [J], for which, under setting [1], the IC50 came to 857 nM.

As for `c1ccc(-c2ccc(COc3ccc4c(c3)CCC(CCN3CCCCC3)C4)cc2)cc1` (stereo not drawn) [F], the IC50 (pH 4.5) stood at 349 nM.

As to `C[N+](C)([O-])CCC1CCc2cc(OCc3ccc(-c4ccccc4)cc3)ccc2C1` (stereo not drawn) [H], the IC50 under setting [1] was found to be 616 nM.

As for `c1ccc(-c2ccc(COc3ccc4c(c3)CCC(CCN3CCCC3)C4)cc2)cc1` (stereo not drawn) [E], the IC50 under setting [1] came out at 1120 nM.

As for `CN(C)CC[C@@H]1CCc2cc(OCc3ccc(-c4ccccc4)cc3)ccc2C1` [Compound A, (R)-(+)-6-(4-Biphenylyl)methoxy-2-[2-(N,N-dimethylamino)ethyl]tetralin hydrochloride·1H2O], the IC50 under setting [1] was found to be 2930 nM.

As to `CNCCC1CCc2cc(OCc3ccc(-c4ccccc4)cc3)ccc2C1` (stereo not drawn) [Compound C], under setting [1], the IC50 worked out at 1290 nM.
